Assay in all cases: biochemical
What all share (design): 33PanQinase radiometric kinase activity assay, residual activity in % of control, contract lab Reaction Biology
Common to all, as to conditions: mean of intraexperimental duplicates, n = 1

For assay [1], the target named is T1, AuroraC (Homo sapiens, UniProt Q9UQB9).
T1 construct: gene AURKC
T1 sequence (Q9UQB9 1-309): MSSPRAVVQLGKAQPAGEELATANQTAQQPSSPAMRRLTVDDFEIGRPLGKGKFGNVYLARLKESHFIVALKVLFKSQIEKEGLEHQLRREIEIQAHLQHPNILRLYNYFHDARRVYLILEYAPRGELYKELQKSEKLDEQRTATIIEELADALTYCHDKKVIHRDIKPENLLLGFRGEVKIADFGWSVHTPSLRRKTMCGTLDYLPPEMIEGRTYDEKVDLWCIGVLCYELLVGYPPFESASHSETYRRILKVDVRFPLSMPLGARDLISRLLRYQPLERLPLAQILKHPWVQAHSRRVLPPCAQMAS
On the procedure: (§1) Kinase Screening was performed at Reaction Biology (Freiburg, Germany) by using the ^33PanQinase Assay.^[ [90] ^] Based on this knowledge, we commissioned a kinase screening by the firm Reaction Biology, targeting those kinases whose inhibition has shown an indirect effect on microtubules. In our selection, we included additional kinases that are known to be involved in centrosome amplification (PLK4^[ [82] ^]), centrosome clustering (CDK1/2,^[ [83] ^] PLK1^[ [84] ^]), spindle multipolarity (SRC^[ [85] ^]), microtubule dynamics (AKT1^[ [86] ^]), and LIMK1/2 activation (ROCK1^[ [87] ^]) or are crucial for the mitosis (BUB1B, NEK2/9, WEE1^[ [88] ^]). Nonetheless, 1(R) and 1(S) at 10 µM had almost no inhibitory effects on any of the chosen kinases (Table 4 ). Only Aurora A (mean residual activity for 1(R): 86%, 1(S): 98%) and ASK1 (mean residual activity for 1(R): 90%, 1(S): 117%) were slightly enantioselectively impacted. However, we theorize that those marginal inhibitions are not explanatory for the antiproliferative and morphological effects of 1(R) on cancer cells.

Assay [2] addresses BUB1B (Homo sapiens, UniProt O60566). How it is done: as §1
Assay [3] concerns the target CDK2/CycA2 (Homo sapiens, UniProt P24941). How it is done:
as §1

The target in assay [4] is T2, NEK2 (Homo sapiens, UniProt P51955).
T2 sequence (P51955 1-445): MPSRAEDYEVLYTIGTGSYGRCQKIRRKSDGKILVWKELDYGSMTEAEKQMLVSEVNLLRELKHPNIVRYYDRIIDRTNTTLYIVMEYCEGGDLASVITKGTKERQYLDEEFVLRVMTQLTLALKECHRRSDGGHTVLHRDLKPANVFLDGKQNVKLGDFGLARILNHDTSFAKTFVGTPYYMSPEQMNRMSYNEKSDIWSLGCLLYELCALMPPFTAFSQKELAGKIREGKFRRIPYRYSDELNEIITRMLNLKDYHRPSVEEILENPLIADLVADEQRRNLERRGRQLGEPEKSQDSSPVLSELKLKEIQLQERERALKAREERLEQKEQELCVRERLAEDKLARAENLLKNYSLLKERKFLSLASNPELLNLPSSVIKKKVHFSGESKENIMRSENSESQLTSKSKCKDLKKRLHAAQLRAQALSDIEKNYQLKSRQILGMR
How it is done: as §1

For assay [5], the target named is PLK1 (Homo sapiens, UniProt P53350). How it is done: as §1
Chain of PLK1 (P53350 whole entry): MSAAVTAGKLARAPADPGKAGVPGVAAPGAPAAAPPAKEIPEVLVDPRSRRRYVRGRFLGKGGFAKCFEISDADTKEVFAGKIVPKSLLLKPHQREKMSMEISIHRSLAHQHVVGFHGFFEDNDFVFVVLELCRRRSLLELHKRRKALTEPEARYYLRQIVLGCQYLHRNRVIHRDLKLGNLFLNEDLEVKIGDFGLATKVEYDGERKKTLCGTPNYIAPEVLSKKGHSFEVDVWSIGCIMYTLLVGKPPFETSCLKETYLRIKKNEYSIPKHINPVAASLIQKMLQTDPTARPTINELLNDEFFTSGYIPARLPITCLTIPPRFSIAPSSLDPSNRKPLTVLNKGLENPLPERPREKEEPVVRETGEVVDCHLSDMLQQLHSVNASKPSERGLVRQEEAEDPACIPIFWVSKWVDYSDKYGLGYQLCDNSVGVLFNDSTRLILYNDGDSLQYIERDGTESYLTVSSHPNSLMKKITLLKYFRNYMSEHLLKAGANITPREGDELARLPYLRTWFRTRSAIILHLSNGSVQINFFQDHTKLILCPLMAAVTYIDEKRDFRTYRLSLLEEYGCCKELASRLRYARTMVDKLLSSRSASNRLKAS
Assay [6] concerns the target T3, PLK4 (Homo sapiens, UniProt O00444).
T3 sequence (O00444 1-970): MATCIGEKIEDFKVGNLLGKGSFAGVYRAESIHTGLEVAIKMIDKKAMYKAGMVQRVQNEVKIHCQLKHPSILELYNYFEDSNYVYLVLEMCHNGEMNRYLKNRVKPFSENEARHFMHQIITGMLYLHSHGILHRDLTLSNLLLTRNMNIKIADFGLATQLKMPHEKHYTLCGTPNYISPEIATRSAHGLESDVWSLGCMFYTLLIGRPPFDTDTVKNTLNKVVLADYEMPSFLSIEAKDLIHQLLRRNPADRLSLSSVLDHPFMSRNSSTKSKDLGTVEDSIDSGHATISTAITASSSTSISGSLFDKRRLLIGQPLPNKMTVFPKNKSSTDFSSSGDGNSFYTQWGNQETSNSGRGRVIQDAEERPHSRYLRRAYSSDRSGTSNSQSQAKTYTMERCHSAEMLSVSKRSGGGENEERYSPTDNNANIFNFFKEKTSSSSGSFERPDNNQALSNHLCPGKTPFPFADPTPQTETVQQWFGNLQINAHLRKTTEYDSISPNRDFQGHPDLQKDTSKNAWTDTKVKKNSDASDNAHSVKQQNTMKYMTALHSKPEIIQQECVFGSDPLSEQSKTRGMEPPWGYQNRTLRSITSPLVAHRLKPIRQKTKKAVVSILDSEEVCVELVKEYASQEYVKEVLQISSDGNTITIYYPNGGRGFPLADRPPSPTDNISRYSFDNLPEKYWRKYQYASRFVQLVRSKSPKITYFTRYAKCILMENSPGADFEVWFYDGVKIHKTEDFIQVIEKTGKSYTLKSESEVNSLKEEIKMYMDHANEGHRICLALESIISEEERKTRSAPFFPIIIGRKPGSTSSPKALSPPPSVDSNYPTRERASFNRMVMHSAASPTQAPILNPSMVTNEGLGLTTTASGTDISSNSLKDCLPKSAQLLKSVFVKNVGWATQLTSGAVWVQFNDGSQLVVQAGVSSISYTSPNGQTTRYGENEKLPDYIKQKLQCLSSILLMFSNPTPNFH
How it is done: as §1

The target of assay [7] is WEE1 (Homo sapiens, UniProt P30291). How it is done:
as §1

Where [8] appears, read: read-out: Residual activities [% of control] / 1(R) 10 µM.
The mark [9] stands for this setting: read-out: Residual activities [% of control] / 1(S) 10 µM.

Each structure is given as a SMILES string. Like-named read-outs stand apart in the source and are kept apart here.

Chain of BUB1B (O60566 whole entry): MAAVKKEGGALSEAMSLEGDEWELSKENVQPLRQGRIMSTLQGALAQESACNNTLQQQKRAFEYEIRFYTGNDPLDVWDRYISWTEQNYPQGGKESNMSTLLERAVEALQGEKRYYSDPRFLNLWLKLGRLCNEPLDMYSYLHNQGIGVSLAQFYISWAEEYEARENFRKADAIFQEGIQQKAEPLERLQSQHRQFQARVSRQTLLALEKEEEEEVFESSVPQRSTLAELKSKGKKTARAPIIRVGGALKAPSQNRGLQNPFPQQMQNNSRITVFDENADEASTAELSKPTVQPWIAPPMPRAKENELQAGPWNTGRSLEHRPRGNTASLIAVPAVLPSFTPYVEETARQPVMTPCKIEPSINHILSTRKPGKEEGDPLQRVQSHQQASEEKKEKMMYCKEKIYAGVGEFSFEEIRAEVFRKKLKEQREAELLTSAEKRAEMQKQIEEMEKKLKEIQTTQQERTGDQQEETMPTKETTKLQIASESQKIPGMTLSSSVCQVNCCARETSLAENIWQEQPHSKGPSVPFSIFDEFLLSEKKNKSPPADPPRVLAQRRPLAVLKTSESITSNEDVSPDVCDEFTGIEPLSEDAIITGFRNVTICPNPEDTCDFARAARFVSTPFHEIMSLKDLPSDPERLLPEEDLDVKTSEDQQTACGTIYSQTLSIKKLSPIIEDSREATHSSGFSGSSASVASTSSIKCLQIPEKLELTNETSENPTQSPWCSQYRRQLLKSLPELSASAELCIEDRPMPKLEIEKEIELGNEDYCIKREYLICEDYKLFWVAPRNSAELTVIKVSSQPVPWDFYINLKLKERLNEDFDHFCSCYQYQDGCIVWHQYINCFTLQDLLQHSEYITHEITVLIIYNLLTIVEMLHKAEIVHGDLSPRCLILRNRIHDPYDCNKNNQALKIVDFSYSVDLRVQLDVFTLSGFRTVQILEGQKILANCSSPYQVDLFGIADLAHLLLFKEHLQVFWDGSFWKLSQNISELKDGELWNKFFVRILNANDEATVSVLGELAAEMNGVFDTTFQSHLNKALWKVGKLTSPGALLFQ
Chain of WEE1 (P30291 whole entry): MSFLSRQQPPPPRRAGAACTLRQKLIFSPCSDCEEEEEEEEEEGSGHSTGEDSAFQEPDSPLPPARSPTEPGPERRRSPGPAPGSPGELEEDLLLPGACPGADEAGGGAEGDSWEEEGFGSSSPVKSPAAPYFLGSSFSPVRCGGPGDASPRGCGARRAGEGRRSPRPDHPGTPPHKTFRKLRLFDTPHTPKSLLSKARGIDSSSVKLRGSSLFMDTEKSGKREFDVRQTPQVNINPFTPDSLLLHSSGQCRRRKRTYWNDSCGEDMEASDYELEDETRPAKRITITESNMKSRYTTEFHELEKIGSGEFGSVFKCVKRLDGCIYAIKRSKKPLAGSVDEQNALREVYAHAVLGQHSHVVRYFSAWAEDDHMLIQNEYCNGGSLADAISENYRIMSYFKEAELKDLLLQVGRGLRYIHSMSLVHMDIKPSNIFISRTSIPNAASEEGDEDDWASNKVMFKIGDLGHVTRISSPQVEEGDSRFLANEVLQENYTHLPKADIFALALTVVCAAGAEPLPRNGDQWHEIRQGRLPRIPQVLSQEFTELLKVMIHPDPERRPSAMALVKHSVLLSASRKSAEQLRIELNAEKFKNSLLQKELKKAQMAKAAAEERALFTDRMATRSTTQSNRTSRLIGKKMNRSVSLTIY

With `Nc1ccc2ccccc2c1-c1c(N)ccc2ccccc12` [1(R), (R)‐[1,1′‐binaphthalene]‐2,2′‐diamine], the remaining activity at 10 µM in assay [1] (setting [8]) was determined as 101%; in assay [2] (setting [8]), 118%; in assay [3] (setting [8]), 95%; in assay [4] (setting [8]) it was 106%; in assay [5] (setting [8]), 95%; in assay [6] (setting [8]), 97%. Further, the remaining activity at 10 µM in assay [7] (setting [8]) was found to be 99%.

For `Nc1ccc2ccccc2c1-c1c(N)ccc2ccccc12` [1(S), S‐BINAM], the remaining activity at 10 µM in assay [1] (setting [9]) stood at 100%; in assay [2] (setting [9]) it was 111%; in assay [3] (setting [9]), 92%; in assay [4] (setting [9]), 96%; in assay [5] (setting [9]), 91%; in assay [6] (setting [9]), 99%. In addition, in assay [7] (setting [9]), the remaining activity at 10 µM amounted to 98%.

The values above are taken from PMC12503911, “Cytotoxicity of Atropisomeric [1,1′‐Binaphthalene]‐2,2′‐Diamines (BINAM) and Analogs in Human Cancer Cells: Enantioselectivity, Structure–Activity Relationships, and Mechanism” (Chemmedchem, 2025).
